Paper PMC12124432, “Antimicrobial Peptide‐Peptoid Macrocycles from the Polymyxin B2 Chemical Space” (Angewandte Chemie (International Ed. in English), 2025)
Converted amounts (≈) assume the structure as drawn. Numbered stars: 1 amine (or outer) side, 2 acyl side, 3 side chain; on linkers, the order of the positions; unused ones are H or OH. Bridge positions count the residues as written; N and C are the ends. Square brackets hold non-standard residues; d marks the D form. Peptide text beside a SMILES is read from it. * marks the point of attachment. NGly(CH2(3-pyridyl)) = O=C(O)CNCc1cccnc1; Propanoyl(3-cHex) = O=C(CCC1CCCCC1)*; Propanoyl(3-cPent) = O=C(CCC1CCCC1)*; Gly(NCH2CH2Ph) = O=C(O)CNCCc1ccccc1; Cyclopentylacetyl = O=C(CC1CCCC1)*; Gly(N-2-aminoethyl) = NCCNCC(=O)O; X1 = O=C(CN(Cc1ccccn1)[*:1])[*:2]; Pentanoyl(4-Me) = CC(C)CCC(=O)*; Gly(N(CH2)3NH2) = NCCCNCC(=O)O; Gly(N-cHex) = O=C(O)CNC1CCCCC1; Gly(N-CH2CH2OH) = O=C(O)CNCCO; N(iPr)Gly = CC(C)NCC(=O)O; Heptanoyl = CCCCCCC(=O)*; NHexGly = CCCCCCNCC(=O)O; Nphe = O=C(O)CNCc1ccccc1; Octanoyl = CCCCCCCC(=O)*; Dab = NCC[C@H](N)C(=O)O; Pentanoyl = CCCCC(=O)*; Nleu = CC(C)CNCC(=O)O; NPrGly = CCCNCC(=O)O; Nlys = NCCCCNCC(=O)O

Assays:
P. aeruginosa PAO1 = assay type: cell-based, Pseudomonas aeruginosa; details: PAO1, pH 8.5
Description: (§1) Minimal Inhibitory Concentration (MIC)
(§2) Antimicrobial activity was assayed for all the peptide-peptoids against P. aeruginosa PAO1, K. pneumoniae NCTC418, E. coli W3110, A. baumannii ATCC 19606, methicillin-resistant S. aureus COL (MRSA) and for selected peptides on P. aeruginosa PA14, as well as the clinical isolates ZEM-1A and ZEM9A, K. pneumoniae OXA-48, Enterobacter cloacae, Stenotrophomonas maltophilia and Staphylococus epidermidis. To determine the Minimal Inhibitory Concentration (MIC), Broth Microdilution method was used. A colony of bacteria was picked and grown in LB medium overnight at 37 °C. The next day, the culture was then regrown in LB medium to log phase (OD600 = 0.6 to 0.8), which lasted approximately 4 hours, and diluted to an OD600 of 0.022 in the desired medium (full MH or 12.5% MH).
(§3) The compounds were prepared as stock solutions of 2 mg/mL in sterilized MilliQ deionized water and then diluted in the desired media (full MH or 12.5% MH) to reach the first concentration tested (32 μg/mL). The compounds were added to the first well of a 96-well sterile, round bottom microtiter plates in polystyrene (TPP®, untreated) and diluted serially by ½ in the desired media (full MH or 12.5% MH), to a final volume of 150 µL/well. To each well was finally added 4 µL of the diluted bacterial suspension (see above), corresponding to approximately 5×10^5 CFU. For each test, two columns of the plate were kept for sterility control (medium only), growth control (medium with bacterial inoculum, no compound). The positive control, Polymyxin B (starting with a concentration of 16 µg/mL) in MH medium with bacterial inoculums, was introduced in the two first lines of the plate. The plates were incubated at 37 °C for ca. 18 hours under static conditions. 15 µL of 3-(4,5-dimethylthiazol-2-yl)-2,5-diphenyltetrazolium bromide (MTT)[7] (1 mg/mL in sterilized MilliQ deionized water) were added to each well and the plates were incubated for 20-30 minutes at room temperature. The […]
(§4) minimal inhibitory concentration (MIC) was defined as the lowest concentration of the compound that inhibits the visible growth of the tested bacteria (yellow) with the unaided eye.
(§5) Minimal Hemolytic Concentration (MHC) […]
(§6) 11. Minimal inhibitory in presence of salt
The same procedure as for the antibacterial activity measurements by minimal inhibitory concentration assay (MIC) was applied. The media, 12.5% Mueller-Hinton broth was this time supplemented with different salt concentrations (0, 100, 200 300 mM NaCl). The MIC activities were then determined against Pseudomonas aeruginosa PAO1 and Escherichia coli […]
Table S6. Minimal inhibitory concentration (MIC) on P. aeruginosa PAO1 as function of salt […]
(§7) All data, in μg/mL, measured against P. aeruginosa PAO1, with or without addition of salt (NaCl). The values were measured in dilute medium (12.5% MH) and at slightly basic pH (pH = 8.5), after incubation for 16-20 h at 37 °C. Values represent two different duplicate MIC determinations.

E. coli W3110 = assay type: cell-based, Escherichia coli; details: W3110, pH 8.5
Description: as §1, §2, §3, §4, §5, §6
The same procedure as for the antibacterial activity measurements by minimal inhibitory concentration assay (MIC) was applied. The media, 12.5% Mueller-Hinton broth was this time supplemented with different salt concentrations (0, 100, 200 300 mM NaCl). […]
as §7

| Structure (SMILES) | MIC on P. aeruginosa, 0 mM NaCl (P. aeruginosa PAO1) | MIC on P. aeruginosa, 100 mM NaCl (P. aeruginosa PAO1) | MIC on P. aeruginosa, 200 mM NaCl (P. aeruginosa PAO1) | MIC on P. aeruginosa, 300 mM NaCl (P. aeruginosa PAO1) | MIC on E. coli, 0 mM NaCl (E. coli W3110) | MIC on E. coli, 100 mM NaCl (E. coli W3110) | MIC on E. coli, 200 mM NaCl (E. coli W3110) | MIC on E. coli, 300 mM NaCl (E. coli W3110) |
| --- | --- | --- | --- | --- | --- | --- | --- | --- |
| CC(C)C[C@H](NC(=O)CN(CC(C)C)C(=O)[C@H](CC(C)C)NC(=O)CN(CCCCN)C(=O)[C@H](CC(C)C)NC(=O)CN(CC(C)C)C(=O)[C@H](CCCCN)NC(=O)CN(CC(C)C)C(=O)[C@H](CC(C)C)NC(=O)CN(CCCCN)C(=O)[C@@H](N)CCCCN)C(N)=O [EB9, reference compound] (H-K[Nlys]L[Nleu]K[Nleu]L[Nlys]L[Nleu]L-NH2) | 2 µg/mL (≈ 1.51 µM) | 32 µg/mL (≈ 24.2 µM) | > 64 µg/mL | > 64 µg/mL | 2 µg/mL (≈ 1.51 µM) | 16 µg/mL (≈ 12.1 µM) | 64 µg/mL (≈ 48.4 µM) | > 64 µg/mL |
| CCCCCCCC(=O)N(CCN)CC(=O)N[C@@H](Cc1ccc(O)cc1)C(=O)N[C@@H](CCCCN)C(=O)N[C@H]1CCNC(=O)[C@H](CCCCN)NC(=O)CN(CCN)C(=O)[C@H](CCCNC(=N)N)NC(=O)[C@H](CCCCN)NC1=O [EB14] (Octanoyl-[Gly(N-2-aminoethyl)]YK[Dab]KR[Gly(N-2-aminoethyl)]K; lactam 4-C) | 4 µg/mL (≈ 3.54 µM) | > 64 µg/mL | > 64 µg/mL | > 64 µg/mL | 1 µg/mL (≈ 0.885 µM) | 16 µg/mL (≈ 14.2 µM) | 64 µg/mL (≈ 56.6 µM) | > 64 µg/mL |
| CCCCCCCC(=O)N(CC(=O)N(CCN)CC(=O)N[C@@H](CCC(N)=O)C(=O)N[C@H]1CCNC(=O)[C@H](CCCCN)NC(=O)[C@H](CCCCN)NC(=O)CN(CCCCN)C(=O)[C@H](CCCCN)NC1=O)Cc1ccccn1 [EB16] (Octanoyl-[X1][Gly(N-2-aminoethyl)]Q[Dab]K[Nlys]KK; lactam 4-C) | 4 µg/mL (≈ 3.59 µM) | > 64 µg/mL | > 64 µg/mL | > 64 µg/mL | 0.5 µg/mL (≈ 0.448 µM) | 32 µg/mL (≈ 28.7 µM) | > 64 µg/mL | > 64 µg/mL |
| CC(C)[C@@H]1NC(=O)[C@H](CCCCN)NC(=O)CN(CCN)C(=O)[C@H](CC(N)=O)NC(=O)[C@@H](NC(=O)CN(CCN)C(=O)[C@H](CCCCN)NC(=O)CN(CCc2ccccc2)C(=O)CC2CCCC2)CCNC(=O)[C@H](CCCCN)NC1=O [EB20] (Cyclopentylacetyl-[Gly(NCH2CH2Ph)]K[Gly(N-2-aminoethyl)][Dab]N[Gly(N-2-aminoethyl)]KVK; lactam 4-C; N-terminus assumed) | 16 µg/mL (≈ 13.7 µM) | > 64 µg/mL | > 64 µg/mL | > 64 µg/mL | 1 µg/mL (≈ 0.855 µM) | 64 µg/mL (≈ 54.7 µM) | > 64 µg/mL | > 64 µg/mL |
| CCCCCCCC(=O)N(CC(=O)N(CCCN)CC(=O)N[C@@H](CCC(N)=O)C(=O)N[C@H]1CCNC(=O)[C@H](CCCCN)NC(=O)[C@H](CCCCN)NC(=O)[C@H](CCC(N)=O)NC(=O)CN(CCCCN)C1=O)Cc1cccnc1 [EB34] (Octanoyl-[NGly(CH2(3-pyridyl))][Gly(N(CH2)3NH2)]Q[Dab][Nlys]QKK; lactam 4-C) | 32 µg/mL (≈ 28.3 µM) | > 64 µg/mL | > 64 µg/mL | > 64 µg/mL | 8 µg/mL (≈ 7.08 µM) | > 64 µg/mL | > 64 µg/mL | > 64 µg/mL |
| CC(C)N(CC(=O)N[C@@H](CC(N)=O)C(=O)N[C@H]1CCNC(=O)[C@H](CCCCN)NC(=O)[C@H](CC(N)=O)NC(=O)CN(CCCCN)C(=O)[C@H](CCCCN)NC(=O)[C@H](CO)NC1=O)C(=O)CN(Cc1ccccc1)C(=O)CCC1CCCCC1 [EB36] ({Propanoyl(3-cHex)}-[Nphe][N(iPr)Gly]N[Dab]SK[Nlys]NK; lactam 4-C) | 32 µg/mL (≈ 27 µM) | > 64 µg/mL | > 64 µg/mL | > 64 µg/mL | 16 to 32 µg/mL | > 64 µg/mL | > 64 µg/mL | > 64 µg/mL |
| CC(C)N1CC(=O)N[C@@H](CCCCN)C(=O)N[C@@H](CO)C(=O)N[C@@H](CCCCN)C(=O)NCC[C@H](NC(=O)[C@H](CCCCN)NC(=O)[C@@H]2CCCN2C(=O)CN(CCc2ccccc2)C(=O)CCC2CCCCC2)C(=O)N[C@@H](CC(N)=O)C(=O)NCC1=O [EB37] ({Propanoyl(3-cHex)}-[Gly(NCH2CH2Ph)]PK[Dab]NG[N(iPr)Gly]KSK; lactam 4-C) | 32 µg/mL (≈ 25.8 µM) | > 64 µg/mL | > 64 µg/mL | > 64 µg/mL | 32 µg/mL (≈ 25.8 µM) | > 64 µg/mL | > 64 µg/mL | > 64 µg/mL |

Further lines, results first:

| MIC on P. aeruginosa, 0 mM NaCl (P. aeruginosa PAO1) | MIC on P. aeruginosa, 100 mM NaCl (P. aeruginosa PAO1) | MIC on P. aeruginosa, 200 mM NaCl (P. aeruginosa PAO1) | MIC on P. aeruginosa, 300 mM NaCl (P. aeruginosa PAO1) | MIC on E. coli, 0 mM NaCl (E. coli W3110) | MIC on E. coli, 100 mM NaCl (E. coli W3110) | MIC on E. coli, 200 mM NaCl (E. coli W3110) | MIC on E. coli, 300 mM NaCl (E. coli W3110) | Structure (SMILES) |
| --- | --- | --- | --- | --- | --- | --- | --- | --- |
| 4 µg/mL (≈ 3.08 µM) | > 64 µg/mL | > 64 µg/mL | > 64 µg/mL | 1 µg/mL (≈ 0.769 µM) | 16 µg/mL (≈ 12.3 µM) | > 64 µg/mL | > 64 µg/mL | CCCCCCN(CC(=O)N[C@H]1CCNC(=O)[C@H](CCCCN)NC(=O)CN(CCN)C(=O)CN(CCN)C(=O)[C@H](CCCCN)NC(=O)[C@H](CC(N)=O)NC(=O)[C@H](CCCCN)NC1=O)C(=O)[C@H](CCCCN)NC(=O)CN(Cc1ccccc1)C(=O)CCCC [EB22] (Pentanoyl-[Nphe]K[NHexGly][Dab]KNK[Gly(N-2-aminoethyl)][Gly(N-2-aminoethyl)]K; lactam 4-C) |
| 16 µg/mL (≈ 13.1 µM) | > 64 µg/mL | > 64 µg/mL | > 64 µg/mL | 2 µg/mL (≈ 1.63 µM) | > 64 µg/mL | > 64 µg/mL | > 64 µg/mL | CCCCCCC(=O)N(CC(=O)N(CCCN)CC(=O)N(CCN)CC(=O)N[C@H]1CCNC(=O)[C@H](CCCCN)NC(=O)CN(C2CCCCC2)C(=O)CN(CCN)C(=O)[C@H](CCC(N)=O)NC(=O)[C@H](CCCNC(=N)N)NC1=O)Cc1ccccc1 [EB23] (Heptanoyl-[Nphe][Gly(N(CH2)3NH2)][Gly(N-2-aminoethyl)][Dab]RQ[Gly(N-2-aminoethyl)][Gly(N-cHex)]K; lactam 4-C) |
| 16 µg/mL (≈ 13.8 µM) | > 64 µg/mL | > 64 µg/mL | > 64 µg/mL | 4 µg/mL (≈ 3.46 µM) | 16 µg/mL (≈ 13.8 µM) | > 64 µg/mL | > 64 µg/mL | CCCN1CC(=O)N[C@@H](CC(N)=O)C(=O)N[C@@H](CCCCN)C(=O)N(CCCN)CC(=O)N[C@@H](CCCCN)C(=O)NCC[C@H](NC(=O)[C@H](CCCNC(=N)N)NC(=O)CNC(=O)CN(CCc2ccccc2)C(=O)CCC(C)C)C1=O [EB26] ({Pentanoyl(4-Me)}-[Gly(NCH2CH2Ph)]GR[Dab][NPrGly]NK[Gly(N(CH2)3NH2)]K; lactam 4-C) |
| 32 µg/mL (≈ 27.1 µM) | > 64 µg/mL | > 64 µg/mL | > 64 µg/mL | 4 µg/mL (≈ 3.38 µM) | > 64 µg/mL | > 64 µg/mL | > 64 µg/mL | NCCCC[C@@H]1NC(=O)CN(CCO)C(=O)[C@@H]2CCCN2C(=O)CN(CCCN)C(=O)[C@@H](NC(=O)[C@H](CC(N)=O)NC(=O)[C@H](CCCCN)NC(=O)[C@H](CCCCN)NC(=O)CN(Cc2ccccc2)C(=O)CCC2CCCC2)CCNC1=O [EB32] ({Propanoyl(3-cPent)}-[Nphe]KKN[Dab][Gly(N(CH2)3NH2)]P[Gly(N-CH2CH2OH)]K; lactam 5-C) |
